The record followed here is patent US20240368115A1, “REGULATOR CONTAINING TRICYCLIC DERIVATIVE, PREPARATION METHOD THEREFOR AND APPLICATION THEREOF” (SHUJING BIOPHARMA CO., LTD, priority 2021, published 2024).

Each structure is given as a SMILES string.

For data set [1], the target named is T1, D2S receptor (Homo sapiens, UniProt P14416).
T1 construct: expressed in transfected cells
Put plainly: D2S receptor cAMP agonist test. Type of data set: cell-based. Particulars: HEK293 cell strain stably expressing D2S receptor; for EC50: cAMP, forskolin 5×10^−7 M; for D2S Max Act %: positive control dopamine 1×10^−7 M. An excerpt:
cAMP detection kit was purchased from Cisbio; an HEK293 cell strain stably expressing D2S receptor was constructed by Shanghai Shujing Biopharma Co., Ltd.; dopamine, forskolin, and IBMX were purchased from Sigma; ProxiPlate-384 well plates were purchased from PerkinElmer; HBSS was purchased from Thermo Fisher Scientific.
(§1) • (1) The cultured cells were digested with trypsin, and the cell suspension was washed with HBSS buffer after the digestion was terminated. The medium was removed by centrifugation at 200×g. The pellet was resuspended in an appropriate amount of experimental buffer, and 20 μL of cell suspension was counted using a cell counter and diluted to 0.6×10^6 cells/mL. • (2) 5 μL of cell suspension was added to a ProxiPlate-384 well plate (3×10^3 cells/well). • (3) Test compounds were serially diluted in an experimental buffer, and 5 μL of the mixed solution was transferred to the reaction plate with Bravo.

For data set [2], the target named is T2, 5-HT1A receptor (Homo sapiens, UniProt P08908).
T2 construct: expressed in transfected cells
T2 sequence (P08908 1-422): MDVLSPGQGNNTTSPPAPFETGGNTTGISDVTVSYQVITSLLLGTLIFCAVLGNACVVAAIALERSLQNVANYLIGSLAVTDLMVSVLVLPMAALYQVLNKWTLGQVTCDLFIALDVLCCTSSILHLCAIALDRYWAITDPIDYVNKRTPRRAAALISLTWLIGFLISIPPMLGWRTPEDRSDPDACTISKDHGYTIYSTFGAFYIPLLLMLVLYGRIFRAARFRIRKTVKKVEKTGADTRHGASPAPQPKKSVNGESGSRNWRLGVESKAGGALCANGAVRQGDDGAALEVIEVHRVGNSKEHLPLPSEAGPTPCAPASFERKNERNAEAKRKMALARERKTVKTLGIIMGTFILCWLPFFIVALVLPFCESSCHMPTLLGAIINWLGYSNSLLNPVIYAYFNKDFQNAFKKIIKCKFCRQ
The data set can be described thus: 5-HT1A receptor cAMP agonist test. Particulars: HEK293 cell strain stably expressing 5-HT1A receptor; for EC50: cAMP, forskolin 2.5×10^−7 M; for 5-HT1A Max Act %: positive control serotonin 10^−6 M. Type of data set: cell-based.
Excerpt: • cAMP detection kit was purchased from Cisbio; an HEK293 cell strain stably expressing 5-HT1A receptor was constructed by Shanghai Shujing Biopharma Co., Ltd.; serotonin, forskolin, and IBMX were purchased from Sigma; ProxiPlate-384 well plates were purchased from PerkinElmer; HBSS was purchased from Thermo Fisher Scientific.
as §1, with “0.4×10^6” for “0.6×10^6”, “(2×10^3” for “(3×10^3”

Data set [3] concerns the target 5-HT2A receptor (Homo sapiens, UniProt P28223). The data set can be described thus: Calcium flux test for 5-HT2A receptor. The format is cell-based. Particulars: CHO cell strain stably expressing 5-HT2A receptor; for IC50: calcium flux, antagonism of serotonin; for 5-HT2A Max Inh %: positive control ketanserin 10^−7 M. The procedure:
• Fluo-4 calcium flux detection kit was purchased from Invitrogen; a CHO cell strain stably expressing 5-HT2A receptor was purchased from PerkinElmer; serotonin was purchased from Sigma; ketanserin was purchased from Targetmol; polylysine-coated 384-well plates and 384-well compound plates were purchased from Greiner Bio-One. Molecular Device FLIPR, Agilent Bravo liquid workstation, and Countstar BioTech cell counter.
• (1) The cryopreserved cells were rapidly thawed in a water bath at 37° C., and the cells were resuspended in a plating medium. The cryopreservation solution was removed by centrifugation at 200×g. The pellet was resuspended in an appropriate amount of plating medium, 20 μL of cell suspension was counted using a cell counter, and the cell density was diluted to 1×10^6 cells/mL. • (2) 20 μL of cell suspension was added to a polylysine-coated 384-well plate (2×10^4 cells/well). • (3) The cell plate was incubated in a 37° C./5% CO2 incubator for 16-20 h.
• (1) The cell plate was taken out from the incubator and centrifuged at 100×g to remove the medium. 20 μL of experimental buffer was added, and then 20 μL of 2× fluorescent probe solution was added. […] The cell plate and agonist positive compound plate were placed into the FLIPR instrument, the detection program was run, 10 μL of the diluted compound was transferred from the agonist compound plate to the cell plate, and the fluorescence signal was read. […] The cell plate and test compound plate were placed in the FLIPR instrument, the detection program was run, and 10 μL of the diluted compound was transferred from the test compound plate to the cell plate. […] The test compound plate was then taken out, and the agonist positive compound plate with 6×EC50 concentration was placed.
Inhibition rate (Inhibition %)=(negative control reading value−compound reading value)/(negative control reading value−positive control reading value)×100%

Data set [4] deals with T3, D2L receptor (Homo sapiens, UniProt P14416).
T3 construct: expressed in transfected cells
Put plainly: D2L receptor cAMP agonist test. Type of data set: cell-based. Particulars: HEK293 cell strain stably expressing D2L receptor; for EC50: cAMP, forskolin 0.5 μM; for D2L Max Act %: positive control dopamine 1 μM. The procedure:
• cAMP detection kit was purchased from Cisbio; an HEK293 cell strain stably expressing D2L receptor was constructed by Shanghai Shujing Biopharma Co., Ltd.; dopamine, forskolin, and IBMX were purchased from Sigma; ProxiPlate-384 well plates were purchased from PerkinElmer; HBSS was purchased from Thermo Fisher Scientific.
• (1) The cryopreserved cells were thawed in a water bath at 37° C., the cell suspension was resuspended in HBSS buffer, and the mixed solution was centrifuged at 750 rpm for 5 min to remove the medium. The pellet was resuspended in an appropriate amount of experimental buffer, and an appropriate amount of cell suspension was diluted to 0.4×10^6 cells/mL. • (2) 5 μL of cell suspension was added to a ProxiPlate-384 well plate (2×10^3 cells/well), and the plate was centrifuged at 1000 rpm for 1 min. • (3) Test compounds were serially diluted in an experimental buffer, and 5 μL of the mixed solution was transferred to the reaction plate with Bravo.

The nature of data set [5]: Pharmacokinetic test in mice. The format is in vivo. Particulars: male, ICR, mouse, plasma, po, 5 mg/kg, oral intragastric, single dose 5 mg/kg; for AUC(0-inf): read-out: AUC(0-inf); for Cmax: read-out: Cmax. The procedure:
Male ICR mice were administered orally intragastrically, the plasma concentrations of the compounds of the present invention were measured in the mice, the PK parameters were calculated, and the pharmacokinetic evaluation was performed on the compounds of the present invention.
• (1) Test samples: the compounds of the examples of the present invention, self-made. • (2) Test animals: ICR mice, SPF grade, male, Xuzhou Medical University. • (3) Main test instruments:
Drug preparation: according to the weight of the weighed drug, the preparation volume was calculated. 5% of DMSO was added firstly. After the drug was fully dissolved, 95% of 20% aqueous PB-cyclodextrin solution was then added, and the mixture was mixed well for later use.
Administration route: oral intragastric administration. Frequency and duration of administration: single administration.
ICR mice were stratified according to body weight and then randomly divided into groups of 9 mice each, and the mice were fasted overnight prior to the test. The mice were separately administered orally intragastrically. 50 μL of blood was collected from the fundus vein of the mouse at 0 h, 0.083 h, 0.25 h, 0.5 h, 1 h, 2 h, 4 h, 8 h, 12 h, and 24 h (3 time points for each mouse) to a sample tube containing heparin sodium as an anticoagulant, and the tube was placed in wet ice and centrifuged at 4000 r·min^−1 for 10 min. The plasma was separated, and cryopreserved in a refrigerator at −80° C. for testing.
The concentrations of plasma samples were measured by high performance liquid chromatography-tandem mass spectrometry (LC-MS/MS). The retention times of the compounds and internal standard, chromatogram acquisitions, and integrals of chromatograms were processed using the software Analyst (AB SCIEX), and the data statistics were processed using the software Watson LIMS (Thermo Fisher Scientific) or Analyst (AB SCIEX). The concentration of plasma was processed using a non-compartmental model of the pharmacokinetic software WinNonlin™ Version 6.3 (Pharsight, Mountain View, CA), and pharmacokinetic parameters were calculated by a linear log-trapezoidal method.

T1 sequence (P14416 1-414 isoform P14416-2): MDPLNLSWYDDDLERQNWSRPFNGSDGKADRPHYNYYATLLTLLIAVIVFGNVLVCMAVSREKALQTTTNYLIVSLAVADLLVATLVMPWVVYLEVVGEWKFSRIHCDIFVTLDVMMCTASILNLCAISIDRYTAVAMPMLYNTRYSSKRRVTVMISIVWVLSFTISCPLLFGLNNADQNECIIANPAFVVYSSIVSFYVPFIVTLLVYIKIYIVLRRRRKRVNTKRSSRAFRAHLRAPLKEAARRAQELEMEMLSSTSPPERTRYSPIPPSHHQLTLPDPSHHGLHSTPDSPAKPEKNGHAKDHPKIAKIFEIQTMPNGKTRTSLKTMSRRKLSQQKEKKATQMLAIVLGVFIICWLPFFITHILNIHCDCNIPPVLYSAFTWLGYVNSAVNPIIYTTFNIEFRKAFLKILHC
5-HT2A receptor, sequence (P28223 whole entry): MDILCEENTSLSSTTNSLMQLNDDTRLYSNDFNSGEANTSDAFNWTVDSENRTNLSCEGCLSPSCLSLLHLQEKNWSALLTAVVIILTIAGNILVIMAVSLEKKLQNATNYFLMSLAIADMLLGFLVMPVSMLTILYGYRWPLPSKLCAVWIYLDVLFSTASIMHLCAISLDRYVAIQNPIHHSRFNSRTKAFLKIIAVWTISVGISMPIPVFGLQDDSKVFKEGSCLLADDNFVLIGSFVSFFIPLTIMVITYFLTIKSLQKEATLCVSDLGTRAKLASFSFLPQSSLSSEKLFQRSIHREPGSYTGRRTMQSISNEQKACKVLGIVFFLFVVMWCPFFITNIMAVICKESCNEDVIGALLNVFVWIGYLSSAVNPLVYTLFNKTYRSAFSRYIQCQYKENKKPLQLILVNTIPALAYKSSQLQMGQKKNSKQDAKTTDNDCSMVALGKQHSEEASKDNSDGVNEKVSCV
T3 sequence (P14416 whole entry): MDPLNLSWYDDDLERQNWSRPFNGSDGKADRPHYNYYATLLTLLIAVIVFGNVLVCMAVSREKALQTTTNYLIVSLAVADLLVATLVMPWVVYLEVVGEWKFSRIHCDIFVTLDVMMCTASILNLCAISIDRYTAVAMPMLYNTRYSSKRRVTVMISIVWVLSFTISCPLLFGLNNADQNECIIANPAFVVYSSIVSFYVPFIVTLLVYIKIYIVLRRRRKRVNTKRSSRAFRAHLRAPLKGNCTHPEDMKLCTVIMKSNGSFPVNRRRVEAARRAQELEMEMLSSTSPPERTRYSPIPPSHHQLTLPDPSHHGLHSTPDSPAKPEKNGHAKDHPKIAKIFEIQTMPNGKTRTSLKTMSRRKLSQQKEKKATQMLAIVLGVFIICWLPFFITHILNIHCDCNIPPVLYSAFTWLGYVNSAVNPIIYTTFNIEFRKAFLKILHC

With `O=C1Nc2cc(OCCCCN3CCN(c4cccc5sccc45)CC3)ccc2C2CC12` (stereo not drawn) [Example 42, 5-(4-(4-(Benzo[b]thiophen-4-yl)piperazin-1-yl)butoxy)-1,1a,3,7b-tetrahydro-2H-cyclopropa[c]quinolin-2-one], in data set [1], the EC50 was 0.95 nM and the “D2S Max Act %” value was 106.0%. In data set [2], a half-maximal response (EC50) required 313 nM and the “5-HT1A Max Act %” value is 55.7%. Moreover, in data set [3], the IC50 was 1690 nM and the “5-HT2A Max Inh %” value is reported as 100.6%. For the same compound, in data set [4], it took 0.47 nM to reach a half-maximal effect (EC50) and the “D2L Max Act %” value amounted to 32.7%. Moreover, in data set [5], the half-life is 13 h, the total exposure AUC(0-inf) came out at 11300 ng·h/mL and the Cmax was 687 ng/mL.
For the compound `O=C1COc2ccc(OCCCCN3CCN(c4cccc(Cl)c4Cl)CC3)cc2N1` [RP5063, reference compound], in data set [2], the EC50 was 1880 nM and the “5-HT1A Max Act %” value is reported as 31.6%. Further, in data set [3], the 50% inhibitory concentration (IC50) was 9130 nM and the “5-HT2A Max Inh %” value amounted to 67.6%. In addition, in data set [5], the half-life was 3.8 h, the AUC(0-inf) was 1560 ng·h/mL and the Cmax is 195 ng/mL.
As for `O=C1Nc2cc(OCCCCN3CCN(c4cccc5sccc45)CC3)ccc2C2CC12` (single isomer, unassigned) [Example 42-P1], in data set [1], the half-maximal effective concentration (EC50) is 1 nM and the “D2S Max Act %” value is given as 102.0%. For the same compound, in data set [2], the concentration giving a half-maximal response (EC50) was determined as 143 nM and the “5-HT1A Max Act %” value is 62.9%. In addition, in data set [3], the IC50 amounted to 1950 nM and the “5-HT2A Max Inh %” value was found to be 100.5%. Besides, in data set [4], it took 0.99 nM to reach a half-maximal effect (EC50) and the “D2L Max Act %” value is listed as 29.6%. In addition, in data set [5], the half-life was 4.1 h, the area under the curve AUC(0-inf) came to 8000 ng·h/mL and the Cmax was 1180 ng/mL.
As to `O=C1Nc2cc(OCCCCN3CCN(c4cccc5c4OCC5)CC3)ccc2C2CC12` (stereo not drawn) [Example 44, 5-(4-(4-(2,3-Dihydrobenzofuran-7-yl)piperazin-1-yl)butoxy)-1,1a,3,7b-tetrahydro-2H-cyclopropa[c]quinolin-2-one], in data set [1], the EC50 was determined as 0.93 nM and the “D2S Max Act %” value was 91.0%. In data set [2], a half-maximal response (EC50) required 11.2 nM and the “5-HT1A Max Act %” value is listed as 58.9%. For the same compound, in data set [3], the half-maximal inhibitory concentration (IC50) is 260 nM and the “5-HT2A Max Inh %” value is on record as 99.7%. For the same compound, in data set [4], the response was half-maximal at 0.37 nM (EC50) and the “D2L Max Act %” value is given as 44.7%.
Take `O=C1Nc2cc(OCCCCN3CCN(c4cccc5c4OCC5)CC3)ccc2C2CC12` (single isomer, unassigned) [Example 44-P1]: in data set [1], the response was half-maximal at 0.98 nM (EC50) and the “D2S Max Act %” value is recorded as 96.8%. Besides, in data set [2], the 50% effective concentration (EC50) was determined as 12.7 nM and the “5-HT1A Max Act %” value was found to be 49.5%. Moreover, in data set [3], the IC50 stood at 192 nM and the “5-HT2A Max Inh %” value turned out to be 99.6%. Moreover, in data set [4], it took 0.26 nM to reach a half-maximal effect (EC50) and the “D2L Max Act %” value is recorded as 45.9%.
In the case of `O=C1Nc2cc(OCCCCN3CCN(c4cccc5c4CCC5)CC3)ccc2C2CC12` (single isomer, unassigned) [Example 43-P2], in data set [1], it took 0.92 nM to reach a half-maximal effect (EC50) and the “D2S Max Act %” value is recorded as 125.3%. For the same compound, in data set [2], the concentration for a half-maximal effect (EC50) came to 92.4 nM and the “5-HT1A Max Act %” value is 60.6%. In data set [3], the IC50 was found to be 1130 nM and the “5-HT2A Max Inh %” value was determined as 96.6%. Further, in data set [4], the EC50 worked out at 0.25 nM and the “D2L Max Act %” value came to 35.7%.
On to `O=C1CCc2ccc(OCCCCN3CCN(c4cccc(Cl)c4Cl)CC3)cc2N1` [Aripiprazole, reference compound], for which the “5-HT1A Max Act %” value in data set [2] turned out to be 43.8%. In data set [3], the “5-HT2A Max Inh %” value was 86.0%. Moreover, in data set [5], the half-life was 3.5 h, the AUC(0-inf) is 1040 ng·h/mL and the peak concentration (Cmax) was found to be 180 ng/mL.
`O=C1Nc2cc(OCCCCN3CCN(c4cccc5c4CCC5)CC3)ccc2C2CC12` (single isomer, unassigned) [Example 43-P1]: in data set [1], a half-maximal response (EC50) required 1.3 nM and the “D2S Max Act %” value is given as 123.1%. Also, in data set [2], it took 194 nM to reach a half-maximal effect (EC50) and the “5-HT1A Max Act %” value turned out to be 68.3%. In data set [3], the IC50 was determined as 853 nM and the “5-HT2A Max Inh %” value amounted to 100.7%. In addition, in data set [4], the EC50 is 0.9 nM and the “D2L Max Act %” value amounted to 37.9%.
